# Experimental data reported in patent publication US4666892A, “Method and composition for hepatitis treatment with pyrimidine nucleoside compounds” (Sloan-Kettering Memorial Cancer Center, priority 1986, dated 1987).
# Like-named read-outs stand apart in the source and are kept apart here.
# Columns and labels:
# [1] = biological target: T1, HBV DNA polymerase (Hepatitis B virus genotype D subtype ayw, UniProt P03156); test: Time course of viral DNA synthesis with the analog as alternate substrate; assay type: biochemical, hepatitis B virion (HBV); conditions: for DNA synthesis when the natural triphosphate is substituted by the analog: ara-TTP for dTTP, ara-CTP for dCTP, ACVTP for dGTP; for Viral DNA syntheses with dTTP substituted by the analog: [3H] dATP labelled substrate
# T1 construct: HBV particles containing DNA polymerase activity were purified from the serum of an immunosuppressed patient; from tissue; host or cells: virus particles purified from the serum of an HBsAg-positive immunosuppressed patient
# Procedure: (§1) DNA polymerase was assayed as described by Kaplan et al (J. Virol., 12, 995 (1973)) with minor modification. The assay was performed in a 50 ul reaction mixture containing 50 mM Tris-HCl pH=7,6,40 mM MgC12, 60 mM NH4 Cl, 100 uM each dATP, dCTP and dGTP, 0.2-0.7 uM [^3 H] dTTP (30 Ci/mmol), 10 mM 2-mercaptoethanol, 0.5% Nonidet P 40 and enzyme. The reaction was started by addition of the virus particles with 2-mercaptoethanol and Nonidet P 40. Incubation was at 37° C. for 1 h. Acid insoluble radioactive material was collected on a glass fiber filter (GF/C Whatman) Filters were washed 5 times with cold 5% trichloracetic acid containing 10 mM sodium pyrophosphate, then with 95% ethanol. Radioactivity of the dried filter was measured in a liquid scintillation counter.
# The [^32 p] DNA product by the endogenous DNA polymerase reaction was analysed by agarose gel electrophoresis as described by Summers et al (Proc. Natl. Acad. Sci. U.S.A. 72, 4597-4601 (1975)). The reaction was made in 15 ul of the standard DNA polymerase mixture with 1 uM of [^32 p] dCTP (500 Ci/mmol) as labelled nucleotide.
# After 2 h incubation at 37° C., the reaction was terminated by the addition of 20 ul of 10 mM Tris, 10 mM EDTA, 0, 1 mg per ml of proteinase K, 0, 1% (wt/vol) sodium dodecyl sulfate, followed by further incubation for 60 mn at 37° C. 5 ul of 5% (wt/vol) sucrose, 1% bromophenol blue was added, the entire mixture was heated for […] at 65° C., immediately colded at 4° C. and then analyzed by electrophoresis on a horizontal slab gel of 1% agarose. After electrophoresis, the gel was dried and developed by autoradiography.
# To determine the effect of the three analogs on viral DNA synthesis, a time course experiment was performed with HBV DNA polymerase. [^3 ] dATP was used as the labelled substrate. […] The substitution of dTTP by BVdUTP permitted the viral DNA syntheses up to 46 percent of the control after 3 h of reaction. This value increased to 67 percent of the optimal activity after 4 h of reaction. […] The DNA synthesized with BVdUTP as alternate substrate was analyzed by agarose gel electrophoresis.
# [2] = biological target: T1, HBV DNA polymerase; test: HBV endogenous DNA polymerase assay, inhibition by nucleoside triphosphate analogs; assay type: biochemical, hepatitis B virion (HBV); conditions: for ID50 relative to ID50 of FIACTP: times more than FIACTP; for Nature of inhibition (Lineweaver-Burk plots): versus dGTP (ACVTP), dCTP (FIACTP), dTTP (BVdUTP); for Relative efficiency as inhibitor of HBV DNA polymerase: excess of nucleotides (50 uM)
# Excerpt: (§2) HBV particles containing DNA polymerase activity were purified from the serum of an immunosuppressed patient, positive for HBsAg. WHV was obtained from a serum pool of five woodchucks (Marmota monax) chronic carriers of the virus. The woodchucks initially imported from Pennsylvania (Dutchland Lab. Pennsylvania, USA) belonged to a colony followed for over one year by serological tests (Hantz et al, J. Virol. Metho. 7, 45-55 (1983)).
# (§3) Virus was purified by centrifugation on sucrose and isopycnic CsCl gradients. (Hantz et al submitted for publication).
# as §1
# (§4) The relative sensitivities of both enzymes to CVTP, FIACTP and BVdUTP were compared using an excess of nucleotides. For each inhibitor, the concentration of the corresponding radioactive triphosphate was maintained at 2 to 3 times the Km value while the remaining nucleotides were in great excess (50 uM).
# (§5) Although the mode of action for the various compounds is known to be different, the nature of ACVTP, FIACTP and BVdUTP inhibition of viral DNA synthesis catalyzed by HBV and WHV DNA polymerases was examined by determining the extent of inhibition with increasing concentrations of the substrates. In assays with ACVTP, [^3 H] dGTP was the rate limiting substrate while the other three nucleotides were in excess. The same conditions were used with [^3 H] dCTP for FIACTP and [^3 H] dTTP for BVdUTP inhibition. […] Similar results were obtained for WHV DNA polymerase.
# [3] = biological target: T1, HBV DNA polymerase; test: Time course of HBV DNA synthesis, normal substrate added after 120 min with analog; assay type: biochemical, hepatitis B virion (HBV); conditions: for HBV DNA synthesis after addition of the normal substrate at 120 min of reaction with the analog: ACVTP 5 uM then 100 um dGTP, ara-ATP then dATP, ara-CTP then dCTP
# Procedure: as §1
# The effect of ACVTP on HBV DNA synthesis was also studied in a time course experiment ^3 H] dTTP was the labelled substrate. The reaction was initiated without dGTP or with 5 um ACVTP instead of dGTP. […] After 120 min of reaction, 100 uM of dGTP was added. In the assay without dGTP only, the addition of dGTP increased DNA synthesis as expected.
# [4] = biological target: T2, WHV DNA polymerase (Woodchuck hepatitis B virus, UniProt P03160); test: WHV endogenous DNA polymerase assay, inhibition by nucleoside triphosphate analogs; assay type: biochemical; conditions: for ID50 relative to ID50 of FIACTP: times more than FIACTP; for Affinity of WHV DNA polymerase to the analog compared with HBV DNA polymerase: WHV versus HBV DNA polymerase
# T2 construct: WHV was obtained from a serum pool of five woodchucks (Marmota monax) chronic carriers of the virus; from tissue; host or cells: virus particles purified from a serum pool of five chronically infected woodchucks (imported from Pennsylvania)
# Excerpt: as §2, §3, §1, §4, §5
# [5] = tested on: HBV replication; conditions: patients with chronic hepatitis B; Weller et al 1982, 1983; cited from earlier work
# [6] = biological target: T2, WHV DNA polymerase; test: Analog as alternate substrate of WHV DNA polymerase; assay type: biochemical
# [7] = Solubility in water; assay type: physicochemical
# Excerpt: These compounds are soluble in water and therefore water or water based solutions are preferred as solvents for treating patients. The solubilities are as follows:
# The solubility of these compounds can be increased by adding acid or base to the aqueous solvent.
# [8] = water, at 28°, read-out: Solubility
# T2 sequence (P03160 whole entry): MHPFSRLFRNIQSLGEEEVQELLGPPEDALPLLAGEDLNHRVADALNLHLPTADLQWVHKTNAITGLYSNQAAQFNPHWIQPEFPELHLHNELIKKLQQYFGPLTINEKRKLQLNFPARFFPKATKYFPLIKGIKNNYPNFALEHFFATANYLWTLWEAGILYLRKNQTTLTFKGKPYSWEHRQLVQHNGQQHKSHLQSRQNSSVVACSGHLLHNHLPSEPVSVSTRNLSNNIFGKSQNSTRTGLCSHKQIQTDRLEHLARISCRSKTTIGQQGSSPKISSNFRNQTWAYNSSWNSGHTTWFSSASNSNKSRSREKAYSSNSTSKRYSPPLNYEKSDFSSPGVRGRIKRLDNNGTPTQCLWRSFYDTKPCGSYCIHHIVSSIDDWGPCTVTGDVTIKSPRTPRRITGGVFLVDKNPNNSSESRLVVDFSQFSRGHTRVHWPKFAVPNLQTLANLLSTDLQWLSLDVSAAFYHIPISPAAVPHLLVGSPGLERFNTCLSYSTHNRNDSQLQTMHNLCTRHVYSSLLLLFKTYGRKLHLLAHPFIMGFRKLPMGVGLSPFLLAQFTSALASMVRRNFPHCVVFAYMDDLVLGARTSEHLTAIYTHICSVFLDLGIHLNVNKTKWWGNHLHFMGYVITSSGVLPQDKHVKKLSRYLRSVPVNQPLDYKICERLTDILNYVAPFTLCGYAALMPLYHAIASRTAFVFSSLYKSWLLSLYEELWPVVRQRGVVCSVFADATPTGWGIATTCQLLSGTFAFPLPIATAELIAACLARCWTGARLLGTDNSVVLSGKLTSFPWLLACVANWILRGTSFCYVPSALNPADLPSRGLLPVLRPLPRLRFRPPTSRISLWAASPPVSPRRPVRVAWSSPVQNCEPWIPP
# T1 sequence (P03156 whole entry): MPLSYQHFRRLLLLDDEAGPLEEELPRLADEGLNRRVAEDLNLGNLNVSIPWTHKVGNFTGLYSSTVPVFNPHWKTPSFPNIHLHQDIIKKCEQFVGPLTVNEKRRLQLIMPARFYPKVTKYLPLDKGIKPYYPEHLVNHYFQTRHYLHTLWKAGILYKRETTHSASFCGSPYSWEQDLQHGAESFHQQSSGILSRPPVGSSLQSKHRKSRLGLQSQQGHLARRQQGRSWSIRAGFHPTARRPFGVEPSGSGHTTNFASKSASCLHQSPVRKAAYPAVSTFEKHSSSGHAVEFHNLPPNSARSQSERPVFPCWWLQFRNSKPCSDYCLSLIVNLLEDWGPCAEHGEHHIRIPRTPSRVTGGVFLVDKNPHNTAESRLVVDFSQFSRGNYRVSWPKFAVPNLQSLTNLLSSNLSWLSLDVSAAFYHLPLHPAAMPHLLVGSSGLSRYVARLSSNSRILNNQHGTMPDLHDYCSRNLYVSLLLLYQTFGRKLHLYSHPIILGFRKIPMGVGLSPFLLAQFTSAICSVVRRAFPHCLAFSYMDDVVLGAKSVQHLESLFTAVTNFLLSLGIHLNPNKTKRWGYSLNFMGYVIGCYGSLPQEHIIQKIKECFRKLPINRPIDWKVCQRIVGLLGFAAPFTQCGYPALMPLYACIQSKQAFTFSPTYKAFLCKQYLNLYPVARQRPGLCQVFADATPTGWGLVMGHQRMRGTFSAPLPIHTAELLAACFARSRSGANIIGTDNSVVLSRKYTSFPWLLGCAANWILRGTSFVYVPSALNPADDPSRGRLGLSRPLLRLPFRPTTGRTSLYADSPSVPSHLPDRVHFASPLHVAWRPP
smiles,measurement,setting,value
Nc1nc2c(ncn2COCCOP(=O)(O)OP(=O)(O)OP(=O)(O)O)c(=O)[nH]1 [ACVTP],DNA synthesis when the natural triphosphate is substituted by the analog,[1],did not increase the polymerization process
same,ID50 relative to ID50 of FIACTP,[2]; HBV DNA polymerase,18 times
same,Nature of inhibition (Lineweaver-Burk plots),[2]; HBV DNA polymerase,competitive
same,Incorporation of [3H] dTMP with analog instead of dGTP,"[3]; 5 um ACVTP instead of dGTP, first 120 min",no incorporation
same,HBV DNA synthesis when reaction is started with analog and dGTP together,[3]; ACVTP 5 uM and dGTP 100 uM from start,a significant DNA synthesis was observed
same,HBV DNA synthesis after addition of the normal substrate at 120 min of reaction with the analog,[3],no DNA synthesis was observed
same,ID50 relative to ID50 of FIACTP,[4]; WHV DNA polymerase,18 times
same,Affinity of WHV DNA polymerase to the analog compared with HBV DNA polymerase,[4],lower affinity
Nc1nc2c(ncn2COCCO)c(=O)[nH]1 [ACV],In vivo inhibition of HBV replication,[5],inhibition of HBV replication
O=c1[nH]c(=O)n([C@H]2C[C@H](O)[C@@H](COP(=O)(O)OP(=O)(O)OP(=O)(O)O)O2)cc1/C=C/Br [BVdUTP],DNA synthesized with analog as alternate substrate (agarose gel electrophoresis),[1]; HBV DNA,Only incomplete filling of the single stranded region
same,Efficiency as alternate substrate,[1]; HBV DNA polymerase,most efficient alternate substrate
same,Viral DNA syntheses with dTTP substituted by the analog,[1]; after 3 h of reaction,46% of the control
same,Viral DNA syntheses with dTTP substituted by the analog,[1]; after 4 h of reaction,67% of the optimal activity
same,ID50 relative to ID50 of FIACTP,[2]; HBV DNA polymerase,5 times
same,Nature of inhibition (Lineweaver-Burk plots),[2]; HBV DNA polymerase,competitive
same,ID50 relative to ID50 of FIACTP,[4]; WHV DNA polymerase,5 times
same,Affinity of WHV DNA polymerase to the analog compared with HBV DNA polymerase,[4],lower affinity
same,DNA synthesized with analog as alternate substrate (agarose gel electrophoresis),[6]; WHV DNA,Only incomplete filling of the single stranded region
same,Efficiency as alternate substrate,[6]; WHV DNA polymerase,most efficient alternate substrate
"Nc1nc(=O)n([C@@H]2O[C@H](CO)[C@@H](O)[C@@H]2F)cc1I [FIAC, 2'-fluoro-2'-deoxy-arabinosyl-5-iodocytosine]",solubility,"[7]; water with 1 eq hcl, aqueous solvent with about one molar equivalent of hydrochloric acid, read-out: Solubility with added acid",~250 mg/mL
same,solubility,"[7]; water, at 21°, read-out: Solubility",7.2 mg/mL
Nc1nc(=O)n([C@@H]2O[C@H](COP(=O)(O)OP(=O)(O)OP(=O)(O)O)[C@@H](O)[C@@H]2F)cc1I [FIACTP],Incorporation of [3H] dAMP with the analog instead of dCTP,[1]; after 3 h of reaction,about 10 % of the control
same,IC50,"[2]; HBV DNA polymerase, radioactive triphosphate at 2 to 3 times Km, remaining nucleotides 50 uM, read-out: ID50 (concentration of triphosphate required to inhibit 50 percent of DNA polymerase)",50 nM
same,Nature of inhibition (Lineweaver-Burk plots),[2]; HBV DNA polymerase,competitive
same,Relative efficiency as inhibitor of HBV DNA polymerase,[2],most efficient inhibitor
same,IC50,"[4]; WHV DNA polymerase, radioactive triphosphate at 2 to 3 times Km, remaining nucleotides 50 uM, read-out: ID50 (concentration of triphosphate required to inhibit 50 percent of DNA polymerase)",50 nM
same,Affinity of WHV DNA polymerase to the analog compared with HBV DNA polymerase,[4],lower affinity
"O=c1[nH]c(=O)n([C@@H]2O[C@H](CO)[C@@H](O)[C@@H]2F)cc1I [FIAU, 2'-fluoro-2'-deoxy-arabinosyl-5-iodouracil]",Solubility with added base,[7]; aqueous solvent with one equivalent of sodium hydroxide (sodium salt),increased many fold
same,solubility,[7]; [8],4 mg/mL
"Cc1cn([C@@H]2O[C@H](CO)[C@@H](O)[C@@H]2F)c(=O)[nH]c1=O [FMAU, 2'-fluoro-2'-deoxy-arabinosyl-5-methyluracil]",solubility,"[7]; water, at 24°, read-out: Solubility",66 mg/mL
same,solubility,[7]; [8],81 mg/mL
Nc1ncnc2c1ncn2[C@@H]1O[C@H](COP(=O)(O)OP(=O)(O)OP(=O)(O)O)[C@@H](O)[C@@H]1O [ara-ATP],HBV DNA synthesis after addition of the normal substrate at 120 min of reaction with the analog,[3],increased the HBV DNA synthesis
Nc1ccn([C@@H]2O[C@H](COP(=O)(O)OP(=O)(O)OP(=O)(O)O)[C@@H](O)[C@@H]2O)c(=O)n1 [ara-CTP],DNA synthesis when the natural triphosphate is substituted by the analog,[1],no significant incorporation
same,Relative efficiency as inhibitor of HBV DNA polymerase,[2],least efficient
same,HBV DNA synthesis after addition of the normal substrate at 120 min of reaction with the analog,[3],increased the HBV DNA synthesis
Cc1cn([C@@H]2O[C@H](COP(=O)(O)OP(=O)(O)OP(=O)(O)O)[C@@H](O)[C@@H]2O)c(=O)[nH]c1=O [ara-TTP],DNA synthesis when the natural triphosphate is substituted by the analog,[1],no significant DNA synthesis
